± gives the uncertainty stated by the source.
Experiment: xn = mol fraction of the nth substance listed

CCCCCCCCO + CCCCCO
101.33 kPa
Settings	viscosity [mPa·s]
293.15 K, x2 = 0.1991	7.947 ± 0.2
293.15 K, x2 = 0.3363	7.158 ± 0.19
293.15 K, x2 = 0.4792	6.397 ± 0.17
293.15 K, x2 = 0.6294	5.561 ± 0.15
293.15 K, x2 = 0.7214	5.182 ± 0.15
293.15 K, x2 = 0.911	4.341 ± 0.12
298.15 K, x2 = 0.0849	7.229 ± 0.19
298.15 K, x2 = 0.2664	6.385 ± 0.17
298.15 K, x2 = 0.3696	5.903 ± 0.16
298.15 K, x2 = 0.6046	4.921 ± 0.14
298.15 K, x2 = 0.708	4.524 ± 0.13
298.15 K, x2 = 0.8575	3.97 ± 0.11

CCCCCCCCO + CCC(C)=O
viscosity [mPa·s], 100 kPa
Settings	x2 = 0.0822	x2 = 0.1611	x2 = 0.2403	x2 = 0.3498	x2 = 0.4409	x2 = 0.5588	x2 = 0.6462	x2 = 0.7398	x2 = 0.8503	x2 = 0.9398
293.15 K	7.1 ± 0.7	5.43 ± 0.55	4.3 ± 0.4	3.18 ± 0.32	2.46 ± 0.25	1.7 ± 0.17	1.26 ± 0.13	0.96 ± 0.1	0.68 ± 0.07	0.49 ± 0.05
303.15 K	4.93 ± 0.49	3.97 ± 0.4	3.09 ± 0.31	2.32 ± 0.23	1.7 ± 0.17	1.03 ± 0.1	0.75 ± 0.08	0.62 ± 0.06	0.49 ± 0.05	0.42 ± 0.04
313.15 K	3.59 ± 0.36	2.87 ± 0.29	2.28 ± 0.23	1.69 ± 0.17	1.32 ± 0.13	0.98 ± 0.1	0.78 ± 0.08	0.62 ± 0.06	0.49 ± 0.05	0.39 ± 0.04
323.15 K	2.74 ± 0.28	2.22 ± 0.22	1.82 ± 0.18	1.38 ± 0.14	1.1 ± 0.11	0.83 ± 0.08	0.67 ± 0.07	0.54 ± 0.05	0.43 ± 0.04	0.35 ± 0.04

CC(C)(C)N + COC(C)=O
303.15 K, 101 kPa
Settings	viscosity [mPa·s]
x1 = 0.1513	0.3868 ± 0.0035
x1 = 0.247	0.4006 ± 0.0036
x1 = 0.3175	0.4155 ± 0.0037
x1 = 0.4152	0.4301 ± 0.0038
x1 = 0.5361	0.4379 ± 0.0038
x1 = 0.7023	0.4413 ± 0.0039
x1 = 0.771	0.4432 ± 0.0039
x1 = 0.8641	0.4438 ± 0.0039

C=Cc1ccccc1 + CCCCCCCC
Settings	viscosity [mPa·s]
293.15 K, 101 kPa, x1 = 0.622	0.585 ± 0.006
298.15 K, 101 kPa, x1 = 0.622	0.55 ± 0.006
298.15 K, 101.33 kPa, x1 = 0.1009	0.512 ± 0.011
298.15 K, 101.33 kPa, x1 = 0.1995	0.514 ± 0.011
298.15 K, 101.33 kPa, x1 = 0.331	0.516 ± 0.011
298.15 K, 101.33 kPa, x1 = 0.3985	0.522 ± 0.011
298.15 K, 101.33 kPa, x1 = 0.4971	0.535 ± 0.011
298.15 K, 101.33 kPa, x1 = 0.5989	0.558 ± 0.011
298.15 K, 101.33 kPa, x1 = 0.7005	0.587 ± 0.011
298.15 K, 101.33 kPa, x1 = 0.8009	0.616 ± 0.011
298.15 K, 101.33 kPa, x1 = 0.8988	0.657 ± 0.011
303.15 K, 101 kPa, x1 = 0.622	0.52 ± 0.006
303.15 K, 101.33 kPa, x1 = 0.1009	0.481 ± 0.011
303.15 K, 101.33 kPa, x1 = 0.1995	0.485 ± 0.011
303.15 K, 101.33 kPa, x1 = 0.331	0.488 ± 0.011
303.15 K, 101.33 kPa, x1 = 0.3985	0.495 ± 0.011
303.15 K, 101.33 kPa, x1 = 0.4971	0.5 ± 0.011
303.15 K, 101.33 kPa, x1 = 0.5989	0.524 ± 0.011
303.15 K, 101.33 kPa, x1 = 0.7005	0.552 ± 0.011
303.15 K, 101.33 kPa, x1 = 0.8009	0.575 ± 0.011
303.15 K, 101.33 kPa, x1 = 0.8988	0.617 ± 0.011
308.15 K, 101.33 kPa, x1 = 0.1009	0.461 ± 0.011
308.15 K, 101.33 kPa, x1 = 0.1995	0.462 ± 0.011
308.15 K, 101.33 kPa, x1 = 0.331	0.464 ± 0.011
308.15 K, 101.33 kPa, x1 = 0.3985	0.467 ± 0.011
308.15 K, 101.33 kPa, x1 = 0.4971	0.476 ± 0.011
308.15 K, 101.33 kPa, x1 = 0.5989	0.495 ± 0.011
308.15 K, 101.33 kPa, x1 = 0.7005	0.521 ± 0.011
308.15 K, 101.33 kPa, x1 = 0.8009	0.55 ± 0.011
308.15 K, 101.33 kPa, x1 = 0.8988	0.581 ± 0.011
313.15 K, 101 kPa, x1 = 0.3202	0.43 ± 0.005
313.15 K, 101 kPa, x1 = 0.622	0.465 ± 0.005
323.15 K, 101 kPa, x1 = 0.622	0.418 ± 0.005
323.15 K, 101 kPa, x1 = 0.8145	0.462 ± 0.005
323.15 K, 101 kPa, x1 = 0.9081	0.479 ± 0.006

CCOC(F)(F)C(F)(C(F)(F)F)C(F)(F)F + CCOC(F)(F)C(F)(F)C(F)(F)C(F)(F)F
100 kPa, x2 = 0.422
Settings	viscosity [mPa·s]
298.16 K	0.6423 ± 0.014
303.18 K	0.5987 ± 0.013

BrC(Br)Br + Cc1ccccc1
viscosity [mPa·s], 101 kPa
Settings	x1 = 0.1032	x1 = 0.1993	x1 = 0.2989	x1 = 0.3999	x1 = 0.4985	x1 = 0.5956	x1 = 0.6977	x1 = 0.7959	x1 = 0.8985
298.15 K	0.6593 ± 0.0074	0.7557 ± 0.0079	0.8686 ± 0.0086	0.9945 ± 0.0094	1.136 ± 0.01	1.287 ± 0.012	1.449 ± 0.013	1.622 ± 0.015	1.801 ± 0.016
303.15 K	0.6236 ± 0.0071	0.7133 ± 0.0076	0.817 ± 0.0083	0.936 ± 0.009	1.068 ± 0.0099	1.207 ± 0.011	1.358 ± 0.012	1.519 ± 0.014	1.688 ± 0.015
308.15 K	0.5877 ± 0.007	0.6722 ± 0.0074	0.7592 ± 0.0079	0.8765 ± 0.0086	1.001 ± 0.0094	1.131 ± 0.01	1.273 ± 0.012	1.426 ± 0.013	1.583 ± 0.014
313.15 K	0.5544 ± 0.0068	0.6324 ± 0.0072	0.7238 ± 0.0076	0.8262 ± 0.0083	0.939 ± 0.009	1.061 ± 0.0098	1.194 ± 0.011	1.335 ± 0.012	1.483 ± 0.013

CCC(C)(C)OC + CCCCCC
viscosity [mPa·s], 100 kPa
Settings	x1 = 0.0498	x1 = 0.1632	x1 = 0.2584	x1 = 0.3742	x1 = 0.4276	x1 = 0.5464	x1 = 0.6121	x1 = 0.7457	x1 = 0.8625	x1 = 0.9488
293.15 K	0.317 ± 0.03	0.325 ± 0.03	0.332 ± 0.03	0.343 ± 0.03	0.349 ± 0.03	0.363 ± 0.03	0.372 ± 0.03	0.391 ± 0.03	0.412 ± 0.03	0.429 ± 0.03
303.15 K	0.287 ± 0.03	0.293 ± 0.03	0.3 ± 0.03	0.31 ± 0.03	0.315 ± 0.03	0.33 ± 0.03	0.339 ± 0.03	0.362 ± 0.03	0.384 ± 0.03	0.407 ± 0.03
313.15 K	0.254 ± 0.03	0.259 ± 0.03	0.266 ± 0.03	0.277 ± 0.03	0.282 ± 0.03	0.296 ± 0.03	0.304 ± 0.03	0.323 ± 0.03	0.343 ± 0.03	0.358 ± 0.03

C=Cc1ccccc1 + CCCCCC
viscosity [mPa·s], 101.33 kPa
Settings	x1 = 0.1019	x1 = 0.1987	x1 = 0.3024	x1 = 0.4003	x1 = 0.4992	x1 = 0.6023	x1 = 0.7055	x1 = 0.8021	x1 = 0.8935
298.15 K	0.314 ± 0.01	0.334 ± 0.01	0.362 ± 0.01	0.385 ± 0.01	0.417 ± 0.01	0.457 ± 0.011	0.507 ± 0.011	0.566 ± 0.011	0.632 ± 0.011
303.15 K	0.302 ± 0.01	0.319 ± 0.01	0.346 ± 0.01	0.367 ± 0.01	0.397 ± 0.01	0.436 ± 0.011	0.482 ± 0.011	0.534 ± 0.011	0.597 ± 0.011
308.15 K	0.29 ± 0.01	0.305 ± 0.01	0.328 ± 0.01	0.351 ± 0.01	0.379 ± 0.01	0.412 ± 0.01	0.455 ± 0.011	0.505 ± 0.011	0.56 ± 0.011

BrC(Br)Br + CC(C)=O
298.15 K, 101 kPa
Settings	viscosity [mPa·s]
x1 = 0.0969	0.407 ± 0.011
x1 = 0.2014	0.529 ± 0.014
x1 = 0.332	0.696 ± 0.018
x1 = 0.428	0.847 ± 0.022
x1 = 0.4952	0.954 ± 0.025
x1 = 0.5974	1.131 ± 0.03
x1 = 0.6766	1.268 ± 0.033
x1 = 0.7997	1.503 ± 0.04
x1 = 0.9166	1.73 ± 0.05

CCC(C)(C)OC + c1ccccc1
viscosity [mPa·s], 100 kPa
Settings	x1 = 0.051	x1 = 0.1986	x1 = 0.2998	x1 = 0.3995	x1 = 0.4992	x1 = 0.5905	x1 = 0.6974	x1 = 0.8012	x1 = 0.8948	x1 = 0.9496
293.15 K	0.623 ± 0.03	0.579 ± 0.03	0.553 ± 0.03	0.53 ± 0.03	0.51 ± 0.03	0.493 ± 0.03	0.475 ± 0.03	0.46 ± 0.03	0.451 ± 0.03	0.445 ± 0.03
303.15 K	0.547 ± 0.03	0.513 ± 0.03	0.493 ± 0.03	0.475 ± 0.03	0.461 ± 0.03	0.449 ± 0.03	0.436 ± 0.03	0.427 ± 0.03	0.422 ± 0.03	0.418 ± 0.03
313.15 K	0.478 ± 0.03	0.447 ± 0.03	0.43 ± 0.03	0.414 ± 0.03	0.402 ± 0.03	0.392 ± 0.03	0.381 ± 0.03	0.375 ± 0.03	0.372 ± 0.03	0.37 ± 0.03

— the CheMixHub viscosity set
